Active and inactive are the calls of the source.
How the values were obtained:
[1] = target: T1, G-protein coupled receptor 55 (Homo sapiens, UniProt Q9Y2T6); assay: inhibition of LPI-stimulated GPR55 beta-arrestin translocation – imaging, U2OS, beta-arrestin-GFP, LPI agonist, primary screen (AID 2013); type: functional;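 note: antagonist potency measured as reduced agonist-driven arrestin aggregation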
[2] = target: T2, Cannabinoid receptor 1 (Homo sapiens, UniProt P21554); assay: SAR analysis of antagonists of the Cannabinoid Receptor 1 using an Image-Based Assay - Set 2. [Related pubchem assays (depositor defined):AID2013, AID2026]; type: functional
T2 sequence (P21554 whole entry): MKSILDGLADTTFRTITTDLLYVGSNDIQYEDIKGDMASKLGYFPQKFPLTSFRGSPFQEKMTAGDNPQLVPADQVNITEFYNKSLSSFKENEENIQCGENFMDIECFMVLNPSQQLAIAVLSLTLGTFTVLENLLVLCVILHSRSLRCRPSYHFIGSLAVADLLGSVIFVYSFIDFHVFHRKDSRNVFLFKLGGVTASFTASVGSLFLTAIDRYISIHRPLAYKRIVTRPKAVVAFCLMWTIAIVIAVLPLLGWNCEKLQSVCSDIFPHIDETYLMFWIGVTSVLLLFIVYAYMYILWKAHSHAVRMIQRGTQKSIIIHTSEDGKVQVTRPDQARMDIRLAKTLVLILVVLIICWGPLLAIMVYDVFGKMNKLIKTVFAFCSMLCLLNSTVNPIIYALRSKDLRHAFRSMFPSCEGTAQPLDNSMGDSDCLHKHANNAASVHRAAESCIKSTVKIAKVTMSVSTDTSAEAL

[3] = target: T3, G-protein coupled receptor 35 (Homo sapiens, UniProt Q9HC97); assay: SAR analysis of Agonists of the GPR35 Receptor using an Image-Based Assay - Set 2. [Related pubchem assays (depositor defined):AID2013, AID2026]; type: functional
T3 sequence (Q9HC97 whole entry): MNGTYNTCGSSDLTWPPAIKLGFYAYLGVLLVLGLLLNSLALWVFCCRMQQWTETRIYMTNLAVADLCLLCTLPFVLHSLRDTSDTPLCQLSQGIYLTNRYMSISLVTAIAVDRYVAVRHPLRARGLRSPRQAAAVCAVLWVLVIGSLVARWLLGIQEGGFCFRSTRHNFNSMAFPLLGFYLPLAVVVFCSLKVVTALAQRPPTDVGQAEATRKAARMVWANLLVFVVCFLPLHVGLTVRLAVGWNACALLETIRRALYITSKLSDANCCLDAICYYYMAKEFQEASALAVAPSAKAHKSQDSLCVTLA

[4] = target: T4, Cannabinoid receptor 2 (Homo sapiens, UniProt P34972); assay: SAR analysis of antagonists of the Cannabinoid Receptor 2 using an Image-Based Assay. [Related pubchem assays (depositor defined):AID2013, AID2026]; type: functional
T4 sequence (P34972 whole entry): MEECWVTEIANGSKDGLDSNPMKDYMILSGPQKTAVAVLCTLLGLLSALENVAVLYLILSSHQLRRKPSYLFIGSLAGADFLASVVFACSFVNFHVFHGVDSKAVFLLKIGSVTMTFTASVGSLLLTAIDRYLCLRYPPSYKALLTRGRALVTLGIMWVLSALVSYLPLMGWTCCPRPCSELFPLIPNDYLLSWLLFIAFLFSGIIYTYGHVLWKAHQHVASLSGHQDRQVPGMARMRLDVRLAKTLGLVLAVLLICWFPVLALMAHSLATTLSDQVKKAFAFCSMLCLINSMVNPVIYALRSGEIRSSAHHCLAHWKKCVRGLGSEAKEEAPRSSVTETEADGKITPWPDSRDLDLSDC

[5] = target: T2, Cannabinoid receptor 1; assay: SAR analysis of agonists of the Cannabinoid Receptor 1 using an Image-Based Assay - Set 2. [Related pubchem assays (depositor defined):AID2013, AID2026]; type: functional
[6] = target: T3, G-protein coupled receptor 35; assay: SAR analysis of Antagonists of the GPR35 Receptor using an Image-Based Assay - Set 3. [Related pubchem assays (depositor defined):AID2013, AID2026]; type: functional
[7] = target: T1, G-protein coupled receptor 55; assay: blockade of LPI-induced GPR55 arrestin translocation – imaging, U2OS, beta-arrestin-GFP, LPI agonist, set 2, SAR follow-up (AID 2820); type: functional
[8] = target: T4, Cannabinoid receptor 2; assay: SAR analysis of agonists of the Cannabinoid Receptor 2 using an Image-Based Assay. [Related pubchem assays (depositor defined):AID2013, AID2026]; type: functional
[9] = target: T5, Nucleotide-binding oligomerization domain-containing protein 1 (Homo sapiens, UniProt Q9Y239); assay: SAR analysis of compounds that inhibit NOD1 - Set 3. [Related pubchem assays (depositor defined):AID1566, AID1575, AID1578, AID1849, AID1852, AID2333, AID2335, AID2466]; type: functional
T5 sequence (Q9Y239 whole entry): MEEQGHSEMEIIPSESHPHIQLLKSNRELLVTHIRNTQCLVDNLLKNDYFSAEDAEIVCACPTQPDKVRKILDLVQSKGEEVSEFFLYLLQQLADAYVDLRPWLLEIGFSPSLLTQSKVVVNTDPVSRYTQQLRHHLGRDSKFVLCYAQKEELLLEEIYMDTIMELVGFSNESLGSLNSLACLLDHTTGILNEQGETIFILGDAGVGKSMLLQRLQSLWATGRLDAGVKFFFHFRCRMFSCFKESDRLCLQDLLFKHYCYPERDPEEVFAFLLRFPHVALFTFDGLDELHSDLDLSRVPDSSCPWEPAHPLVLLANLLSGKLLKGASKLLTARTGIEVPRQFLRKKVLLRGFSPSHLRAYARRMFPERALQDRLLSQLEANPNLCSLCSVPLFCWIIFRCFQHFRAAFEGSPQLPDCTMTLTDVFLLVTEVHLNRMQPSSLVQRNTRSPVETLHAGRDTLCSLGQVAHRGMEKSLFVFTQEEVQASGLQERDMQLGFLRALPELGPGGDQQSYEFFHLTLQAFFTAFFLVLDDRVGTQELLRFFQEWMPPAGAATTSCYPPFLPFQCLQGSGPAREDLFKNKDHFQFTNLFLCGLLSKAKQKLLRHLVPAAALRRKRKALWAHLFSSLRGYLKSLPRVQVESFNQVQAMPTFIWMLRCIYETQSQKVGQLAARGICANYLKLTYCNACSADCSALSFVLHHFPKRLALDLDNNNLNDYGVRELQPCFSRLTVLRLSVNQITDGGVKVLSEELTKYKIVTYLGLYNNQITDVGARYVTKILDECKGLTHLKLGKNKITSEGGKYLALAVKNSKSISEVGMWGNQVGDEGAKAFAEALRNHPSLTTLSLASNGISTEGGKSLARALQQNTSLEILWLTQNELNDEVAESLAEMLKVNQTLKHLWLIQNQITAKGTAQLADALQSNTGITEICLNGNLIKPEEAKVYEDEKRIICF

[10] = target: Tumor necrosis factor (Homo sapiens, UniProt P01375); assay: analog potency on TNFa NF-kB signaling – cell-based, set 3, SAR follow-up (AID 2801); type: functional
Sequence of Tumor necrosis factor (P01375 whole entry): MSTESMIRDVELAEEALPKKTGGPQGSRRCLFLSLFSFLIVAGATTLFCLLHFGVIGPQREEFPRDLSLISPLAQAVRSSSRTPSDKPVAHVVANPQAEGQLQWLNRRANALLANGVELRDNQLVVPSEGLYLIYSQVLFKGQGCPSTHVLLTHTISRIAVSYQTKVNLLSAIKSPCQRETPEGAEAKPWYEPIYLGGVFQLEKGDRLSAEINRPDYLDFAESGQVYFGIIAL

[11] = tested on: HEK293; assay: SAR analysis of compounds that are cytotoxic to HEK293 - Set 3. [Related pubchem assays (depositor defined):AID1575, AID1578, AID1848, AID1849, AID2001, AID2333, AID2334, AID2335, AID2337, AID2469]; type: functional, cell-based; conditions: Homo sapiens
[12] = target: Nucleotide-binding oligomerization domain-containing protein 2 (Homo sapiens, UniProt Q9HC29); assay: inhibition of MDP-driven NOD2 NF-kB reporter – cell-based, set 3, SAR follow-up (AID 2799); type: functional
Sequence of Nucleotide-binding oligomerization domain-containing protein 2 (Q9HC29 whole entry, the tested form may be a part): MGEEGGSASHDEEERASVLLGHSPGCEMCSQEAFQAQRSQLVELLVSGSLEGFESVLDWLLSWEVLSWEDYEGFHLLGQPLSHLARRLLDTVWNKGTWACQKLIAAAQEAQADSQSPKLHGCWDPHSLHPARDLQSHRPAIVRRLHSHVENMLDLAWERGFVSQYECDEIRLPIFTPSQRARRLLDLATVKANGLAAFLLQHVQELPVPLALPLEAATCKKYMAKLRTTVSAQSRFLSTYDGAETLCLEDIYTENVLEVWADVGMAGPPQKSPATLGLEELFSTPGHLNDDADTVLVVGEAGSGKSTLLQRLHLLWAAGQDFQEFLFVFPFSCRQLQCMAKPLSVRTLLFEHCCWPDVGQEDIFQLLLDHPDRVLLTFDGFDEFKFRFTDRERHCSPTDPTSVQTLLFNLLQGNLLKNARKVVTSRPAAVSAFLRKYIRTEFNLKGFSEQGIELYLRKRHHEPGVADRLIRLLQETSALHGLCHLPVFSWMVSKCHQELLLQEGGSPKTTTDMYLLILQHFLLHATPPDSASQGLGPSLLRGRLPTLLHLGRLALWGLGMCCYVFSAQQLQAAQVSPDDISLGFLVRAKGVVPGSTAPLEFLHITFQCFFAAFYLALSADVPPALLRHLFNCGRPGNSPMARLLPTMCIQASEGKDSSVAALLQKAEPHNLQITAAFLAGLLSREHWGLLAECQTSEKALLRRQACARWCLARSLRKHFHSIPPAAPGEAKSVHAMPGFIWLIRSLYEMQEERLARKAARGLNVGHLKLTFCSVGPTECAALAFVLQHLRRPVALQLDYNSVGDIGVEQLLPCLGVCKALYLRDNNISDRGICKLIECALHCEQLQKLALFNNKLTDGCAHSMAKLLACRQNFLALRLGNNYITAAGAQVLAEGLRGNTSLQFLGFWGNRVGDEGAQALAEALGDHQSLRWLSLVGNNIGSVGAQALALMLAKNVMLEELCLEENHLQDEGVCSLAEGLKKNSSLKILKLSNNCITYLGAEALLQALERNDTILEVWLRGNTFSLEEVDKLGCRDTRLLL

[13] = target: T3, G-protein coupled receptor 35; assay: SAR analysis of Agonists of the GPR35 Receptor using an Image-Based Assay - Set 4. [Related pubchem assays (depositor defined):AID2013, AID2026]; type: functional
[14] = target: T2, Cannabinoid receptor 1; assay: SAR analysis of agonists of the Cannabinoid Receptor 1 using an Image-Based Assay - Set 4. [Related pubchem assays (depositor defined):AID2013, AID2026]; type: functional
[15] = target: T3, G-protein coupled receptor 35; assay: SAR analysis of Antagonists of the GPR35 Receptor using an Image-Based Assay - Set 6. [Related pubchem assays (depositor defined):AID2013, AID2026]; type: functional
[16] = target: T2, Cannabinoid receptor 1; assay: SAR analysis of antagonists of the Cannabinoid Receptor 1 using an Image-Based Assay - Set 4. [Related pubchem assays (depositor defined):AID2013, AID2026]; type: functional
[17] = target: T1, G-protein coupled receptor 55; assay: SAR Analysis of Selective Antagonists of GPR55 using an Image-Based Assay - Set 4. [Related pubchem assays (depositor defined):AID2013, AID2026]; type: functional
[18] = target: T4, Cannabinoid receptor 2; assay: SAR analysis of antagonists of the Cannabinoid Receptor 2 using an Image-Based Assay - Set 3. [Related pubchem assays (depositor defined):AID2013, AID2026]; type: functional
[19] = target: T4, Cannabinoid receptor 2; assay: SAR analysis of agonists of the Cannabinoid Receptor 2 using an Image-Based Assay - Set 3. [Related pubchem assays (depositor defined):AID2013, AID2026]; type: functional
[20] = target: T6, RNA-binding protein pos-1 (Caenorhabditis elegans, UniProt G5EF15); assay: disruptors of C. elegans POS-1 RNA interaction – biochemical, fluorescence polarization, dose response (AID 1964);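 note: purified POS-1 fused to maltose binding protein made in E. coli; potency of compounds blocking POS-1 binding to fluorescent RNA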
T6 sequence (G5EF15 whole entry): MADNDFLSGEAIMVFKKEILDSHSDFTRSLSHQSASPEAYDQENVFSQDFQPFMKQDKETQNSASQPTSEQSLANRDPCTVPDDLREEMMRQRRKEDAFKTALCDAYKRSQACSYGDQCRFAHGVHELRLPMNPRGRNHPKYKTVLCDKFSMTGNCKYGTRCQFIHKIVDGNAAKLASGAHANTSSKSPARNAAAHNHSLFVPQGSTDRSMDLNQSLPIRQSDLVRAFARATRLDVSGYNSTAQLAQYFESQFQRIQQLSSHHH

[21] = target: T7, Zinc finger protein mex-5 (Caenorhabditis elegans, UniProt Q9XUB2); assay: potency of MEX-5 RNA-binding blockers – biochemical, C. elegans, fluorescence polarization, dose response (AID 1960)
T7 sequence (Q9XUB2 whole entry): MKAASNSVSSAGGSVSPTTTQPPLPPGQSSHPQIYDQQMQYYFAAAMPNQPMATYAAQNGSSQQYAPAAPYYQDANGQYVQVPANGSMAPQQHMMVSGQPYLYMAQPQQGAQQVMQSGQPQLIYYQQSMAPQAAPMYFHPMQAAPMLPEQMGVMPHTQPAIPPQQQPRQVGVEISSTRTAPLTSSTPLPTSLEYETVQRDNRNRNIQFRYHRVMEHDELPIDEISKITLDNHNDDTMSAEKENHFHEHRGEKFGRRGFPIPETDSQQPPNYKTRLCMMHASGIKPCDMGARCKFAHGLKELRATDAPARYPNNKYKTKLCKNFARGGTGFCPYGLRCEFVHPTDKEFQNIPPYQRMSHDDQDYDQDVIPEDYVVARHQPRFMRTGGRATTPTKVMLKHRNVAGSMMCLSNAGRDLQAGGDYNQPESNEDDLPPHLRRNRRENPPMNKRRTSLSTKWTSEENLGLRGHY

[22] = target: Intestinal-type alkaline phosphatase (Homo sapiens, UniProt P09923); assay: activation of human intestinal alkaline phosphatase – biochemical, dose response (AID 488873); type: functional
Sequence of Intestinal-type alkaline phosphatase (Homo sapiens, UniProt P09923) (P09923 whole entry): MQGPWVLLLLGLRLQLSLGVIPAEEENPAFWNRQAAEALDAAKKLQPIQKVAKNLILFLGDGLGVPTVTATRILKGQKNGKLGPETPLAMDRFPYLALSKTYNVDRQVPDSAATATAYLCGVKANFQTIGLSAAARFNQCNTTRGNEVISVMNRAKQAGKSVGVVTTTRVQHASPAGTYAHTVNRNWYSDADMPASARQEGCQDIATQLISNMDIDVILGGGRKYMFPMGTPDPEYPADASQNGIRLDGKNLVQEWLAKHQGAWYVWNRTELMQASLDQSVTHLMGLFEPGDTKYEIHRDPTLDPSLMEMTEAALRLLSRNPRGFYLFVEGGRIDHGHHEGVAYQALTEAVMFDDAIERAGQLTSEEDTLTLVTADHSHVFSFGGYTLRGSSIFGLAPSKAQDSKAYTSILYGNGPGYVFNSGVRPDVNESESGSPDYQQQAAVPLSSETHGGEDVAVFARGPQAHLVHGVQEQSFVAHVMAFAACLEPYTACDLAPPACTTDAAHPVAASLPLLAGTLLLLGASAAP

[23] = target: T8, Heat shock factor protein 1 (Mus musculus, UniProt P38532); assay: enhancement of HSF1-driven luciferase signal – cell-based, NIH3T3, luminescence, dose retest, confirmation (AID 435004); type: functional;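 note: stress induced by proteasome inhibitor MG132 added 30 min after compound; luciferase reporter driven by HSF1 response element in NIH3T3 cells; actives raise luminescence as potentiators of the MG132 stress response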
T8 sequence (P38532 whole entry): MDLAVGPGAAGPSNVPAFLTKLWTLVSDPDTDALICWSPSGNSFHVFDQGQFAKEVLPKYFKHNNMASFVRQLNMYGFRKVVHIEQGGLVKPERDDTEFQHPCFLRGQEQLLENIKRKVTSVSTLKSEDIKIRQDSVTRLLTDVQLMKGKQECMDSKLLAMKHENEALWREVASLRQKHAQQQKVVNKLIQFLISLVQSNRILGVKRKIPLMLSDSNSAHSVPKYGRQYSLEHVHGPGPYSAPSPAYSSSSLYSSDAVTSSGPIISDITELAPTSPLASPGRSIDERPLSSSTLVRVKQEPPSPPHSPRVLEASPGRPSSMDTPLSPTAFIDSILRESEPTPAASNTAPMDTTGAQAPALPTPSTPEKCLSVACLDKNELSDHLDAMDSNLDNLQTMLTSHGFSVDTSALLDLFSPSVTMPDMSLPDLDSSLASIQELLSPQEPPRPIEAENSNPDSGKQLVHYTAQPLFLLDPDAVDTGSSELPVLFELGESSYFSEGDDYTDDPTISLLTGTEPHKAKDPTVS

[24] = target: Intestinal-type alkaline phosphatase (Mus musculus, UniProt P24822); assay: mouse intestinal alkaline phosphatase activators, dose response, biochemical, luminescence, uHTS hits (AID 488783); type: functional
Sequence of Intestinal-type alkaline phosphatase (Mus musculus, UniProt P24822) (P24822 whole entry): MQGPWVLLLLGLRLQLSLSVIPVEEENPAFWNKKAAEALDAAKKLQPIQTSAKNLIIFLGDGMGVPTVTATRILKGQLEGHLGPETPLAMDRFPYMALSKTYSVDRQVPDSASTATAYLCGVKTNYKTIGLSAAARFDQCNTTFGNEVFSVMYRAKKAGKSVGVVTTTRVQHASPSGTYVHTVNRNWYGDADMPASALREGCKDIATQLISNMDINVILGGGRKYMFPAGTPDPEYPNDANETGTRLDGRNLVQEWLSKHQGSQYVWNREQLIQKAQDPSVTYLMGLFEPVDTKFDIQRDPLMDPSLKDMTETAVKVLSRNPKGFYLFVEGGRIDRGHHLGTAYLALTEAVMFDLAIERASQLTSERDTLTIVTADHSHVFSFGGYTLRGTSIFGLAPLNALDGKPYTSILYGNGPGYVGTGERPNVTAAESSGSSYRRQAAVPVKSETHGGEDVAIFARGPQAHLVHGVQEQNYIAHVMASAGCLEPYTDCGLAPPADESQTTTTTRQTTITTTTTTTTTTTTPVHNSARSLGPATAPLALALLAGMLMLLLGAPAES

[25] = target: T9, Alkaline phosphatase, tissue-nonspecific isozyme (Homo sapiens, UniProt P05186); assay: activation of tissue-nonspecific alkaline phosphatase – biochemical, TNAP isozyme, mouse IAP uHTS hits, selectivity assay for mouse IAP activator project, dose response (AID 488880); type: functional
T9 sequence (P05186 whole entry): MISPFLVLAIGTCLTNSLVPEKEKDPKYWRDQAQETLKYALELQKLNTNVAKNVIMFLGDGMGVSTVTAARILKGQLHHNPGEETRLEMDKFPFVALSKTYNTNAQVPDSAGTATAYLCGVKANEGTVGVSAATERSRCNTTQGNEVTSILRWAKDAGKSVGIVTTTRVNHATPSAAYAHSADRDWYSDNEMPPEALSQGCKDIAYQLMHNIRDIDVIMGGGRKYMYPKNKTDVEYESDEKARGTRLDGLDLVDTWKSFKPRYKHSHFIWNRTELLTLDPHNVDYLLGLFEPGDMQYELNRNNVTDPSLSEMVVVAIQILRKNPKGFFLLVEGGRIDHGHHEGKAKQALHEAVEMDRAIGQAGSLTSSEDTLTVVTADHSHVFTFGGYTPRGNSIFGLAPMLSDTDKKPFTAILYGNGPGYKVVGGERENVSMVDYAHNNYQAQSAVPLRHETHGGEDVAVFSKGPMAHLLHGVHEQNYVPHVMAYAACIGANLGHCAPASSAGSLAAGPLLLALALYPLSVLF

[26] = target: T10, Rac GTPase-activating protein 1 (Homo sapiens, UniProt Q9H0H5); assay: blockers of MgcRacGAP-driven Rac1 GTP hydrolysis – biochemical, ADP Hunter fluorescence, primary and confirmatory, confirmation (AID 624330); type: functional
T10 sequence (Q9H0H5 whole entry): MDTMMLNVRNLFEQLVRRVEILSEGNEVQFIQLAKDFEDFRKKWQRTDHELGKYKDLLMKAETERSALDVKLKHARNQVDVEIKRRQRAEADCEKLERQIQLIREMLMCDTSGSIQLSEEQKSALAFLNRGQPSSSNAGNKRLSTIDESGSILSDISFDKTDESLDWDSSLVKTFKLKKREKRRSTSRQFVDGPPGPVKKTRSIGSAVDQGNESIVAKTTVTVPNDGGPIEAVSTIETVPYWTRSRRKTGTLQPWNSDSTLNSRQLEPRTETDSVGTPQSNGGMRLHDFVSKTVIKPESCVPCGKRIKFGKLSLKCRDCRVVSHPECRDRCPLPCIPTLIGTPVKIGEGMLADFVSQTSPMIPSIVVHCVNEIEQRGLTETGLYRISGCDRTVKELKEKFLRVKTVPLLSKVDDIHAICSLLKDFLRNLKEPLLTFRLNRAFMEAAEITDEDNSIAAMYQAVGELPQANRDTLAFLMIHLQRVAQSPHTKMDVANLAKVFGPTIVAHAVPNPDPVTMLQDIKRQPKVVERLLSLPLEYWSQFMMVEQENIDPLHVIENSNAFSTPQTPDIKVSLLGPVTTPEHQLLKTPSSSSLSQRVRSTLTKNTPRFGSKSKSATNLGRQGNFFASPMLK

T1 sequence (Q9Y2T6 whole entry): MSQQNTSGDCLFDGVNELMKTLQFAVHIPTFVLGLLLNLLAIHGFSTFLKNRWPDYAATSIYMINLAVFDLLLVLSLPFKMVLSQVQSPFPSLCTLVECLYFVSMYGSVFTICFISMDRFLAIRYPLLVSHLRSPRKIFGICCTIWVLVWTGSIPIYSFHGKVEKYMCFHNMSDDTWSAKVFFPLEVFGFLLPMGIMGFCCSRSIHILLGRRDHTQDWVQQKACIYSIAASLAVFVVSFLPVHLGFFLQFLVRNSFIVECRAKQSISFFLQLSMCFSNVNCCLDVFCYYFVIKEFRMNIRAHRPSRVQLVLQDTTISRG

COc1ccc(-c2c(-c3ccc(O)cc3O)n[nH]c2C(F)(F)F)cc1
IC50 [1]: 1.8 µM (active)
IC50 [2]: 8.82 µM (active)
EC50 [3]: > 32 µM (inactive)
IC50 [4]: > 32 µM (inactive)
EC50 [5]: > 32 µM (inactive)
IC50 [6]: > 32 µM (inactive)
IC50 [7]: 1.06 µM (active)
EC50 [8]: 30.2 µM (inactive)

COc1ccc(-c2cc(N)n(S(=O)(=O)c3cccc([N+](=O)[O-])c3)n2)cc1OC
IC50 [9]: > 20 µM (inactive)
IC50 [10]: > 20 µM (inactive)
IC50 [11]: > 20 µM (inactive)
IC50 [12]: > 20 µM (inactive)

O=C(Nc1ccc(S(=O)(=O)Nc2nccs2)cc1)c1cc(-c2cccs2)nc2ccccc12
EC50 [13]: > 32 µM (inactive)
EC50 [14]: > 32 µM (inactive)
IC50 [15]: > 32 µM (inactive)
IC50 [16]: 4.09 µM (active)
IC50 [17]: 29 µM (inactive)
IC50 [18]: > 32 µM (inactive)
EC50 [19]: > 32 µM (inactive)

Cc1cc(O)nc(N/N=C/c2ccc(O)c(O)c2)n1
EC50 [20]: 99.3 µM (active)
EC50 [21]: 125 µM (active)
EC50 [22]: 66.2 µM (active)
EC50 [23]: > 260 µM (inactive)
EC50 [24]: 58.7 µM (active)
EC50 [25]: 56.1 µM (active)
IC50 [26]: 21.4 µM (active)

From ChEMBL document CHEMBL1201862, “PubChem BioAssay data set” (2004)
